Values quoted from earlier work, collected in patent EP1323421A1 (priority 2001, dated 2003).
Where two headings read alike, the source gives them in different places.

What was measured:
plasma proteins = details: mainly to alpha and beta globulins
[1] = not given; remark: listed apart in the source
[2] = in vivo
[3] = not given; remark: listed apart in the source
[4] = intravenous single dose of about 0.3 mg

For `CO[C@]12CC[C@@]3(C[C@@H]1[C@](C)(O)C(C)(C)C)[C@H]1Cc4ccc(O)c5c4[C@@]3(CCN1CC1CC1)[C@H]2O5` [buprenorphine, 21-cyclopropyl-7.varies.-[(S)-1-hydroxy-1,2,2-trimethylpropyl]-6,14-endo-e thano-6,7,8,14-tetrahydrooripavine], which Tmax (0.4 mg sublingual dose) is on record?
The Tmax was 210.+-.40 minutes.

What about the systemic availability (0.4 mg sublingual dose) of the same molecule?
Its systemic availability is 57.7%.

And the Tmax (0.8 mg sublingual dose)?
Its Tmax is 192.+-.49 minutes.

And the systemic availability (0.8 mg sublingual dose)?
Its systemic availability is 54.1%.

What about the Total plasma clearance (conscious postoperative patients) of the same molecule?
Its Total plasma clearance is “approximately 1.28 I/minute”.

And the hepatic extraction ratio (in vivo)?
Its hepatic extraction ratio is “approximately 1”.

And the Oral bioavailability (in vivo, po)?
The Oral bioavailability was ~15%.

What about the “mean peak plasma buprenorphine concentrations” value (intramuscular second 0.3-mg dose 3 hours after the initial intravenous dose) of the same molecule?
The value was “about 3.6 ng/ml”.

And the plasma concentrations (intramuscular second 0.3-mg dose, after about 3 hours)?
The plasma concentrations was “about 0.4 ng/ml”.

What about the plasma concentrations (intravenous about 0.3 mg, after about 5 minutes) of the same molecule?
The plasma concentrations was “about 9 ng/ml”.

What about the plasma concentrations (intravenous about 0.3 mg, after about 3 hours) of the same molecule?
Its plasma concentrations is “about 0.4 ng/ml”.

What about the “mean peak plasma drug concentrations” value [4] of the same molecule?
The value was “about 18 ng/ml”.

What about the “time of mean peak plasma drug concentrations” value [4] of the same molecule?
Its value is ≤ 2 min.

What about the “bound to plasma proteins” value (plasma proteins) of the same molecule?
The value was “approximately 96%”.

And the “time to highest concentrations in the liver” value ([1]; intramuscular administration in rats)?
Its value is ≤ 40 min.

What about the “time to highest concentrations in the liver” value ([1]; oral administration in rats) of the same molecule?
Its value is ≤ 10 min.

What about the “analgesic potency relative to meperidine” value [2] of the same molecule?
The value was “about 600 times”.

What about the “analgesic potency relative to pentazocine” value [2] of the same molecule?
The value was “about 200 times”.

And the “mean duration of analgesia” value [2]?
The value was “six”.

What about the “influence on the function of bladder or urethra” value ([3]; epidural application, 4 µg/kg (Batra) or 2 µg/kg (Drenger [with dogs])) of the same molecule?
The value was “does not have a significant influence”.

What about the “cases showing urinary retention” value ([3]; i.v. application of 0.3 mg, patients of approx. 70 kg (4.3 µg/kg), Malinovsky) of the same molecule?
The value was 5 out of 10.

What about the urinary retention ([3]; sublingual application of 400µg (~ 5.7 µg/kg), case shown by Murray) of the same molecule?
Its urinary retention is “urinary retention was seen”.
